Article PMC7824897, “Selection of the First ^99mTc-Labelled Somatostatin Receptor Subtype 2 Antagonist for Clinical Translation—Preclinical Assessment of Two Optimized Candidates” (Pharmaceuticals, 2020)
Blank lines part the entries; values can stand above or below the molecule they belong to. Where a SMILES comes first, the peptide text is derived from it. Bridges are numbered along the chain shown (N, C = ends). [ ]: non-standard residue; d: D form. The star is where a group is joined. N4 = 6-carboxy-1,4,8,11-tetraazaundecane chelator, NCCNCC(CNCCN)C(=O)*; dPhe(4-NHCONH2) = NC(=O)Nc1ccc(C[C@@H](N)C(=O)O)cc1; Phe(4-Cl) = N[C@@H](Cc1ccc(Cl)cc1)C(=O)O; X1 = NCCNCC(CNCCN)C(=O)*

Legend:
[1] = assay type: physicochemical; conditions: pH 7.4
Description: Determination of the distribution coefficient (log D) was performed by the shake-flask method in 1:1 mixture of octanol/Phosphate buffered saline (PBS). Then, 50 µL of [^99mTc]Tc-TECANT-1 or [^99mTc]Tc-TECANT-2 solution was diluted up to 500 µL with PBS (pH 7.4; 8 mM phosphate). Next, 20 µL of this solution was added to six eppendorf tubes, each containing 500 µL octanol and 480 µL PBS. The samples were vortexed for 15 min at 1400 rpm followed by centrifugation for 2 min at 4500 rpm. Aliquots of 100 µL from each phase were taken and measured in a γ-counter. The log D was calculated as the average of the logarithmic values (n = 3, six technical replicates) of the ratio between the radioactivity in the octanol and the PBS phase.

in vivo = conditions: female, mouse, 20 pmol, total radioactivity
[2] = parameters: species or system human
Excerpt: To account for various possible locations of the tumour, we used two S-values. One was the value for the liver and is representative for the liver lesions. Other was the “average abdominal S-value”, which was the average S-value for the following organs: stomach, liver, gallbladder, spleen, pancreas, small intestine, kidneys, large intestine, and adrenal glands. Estimated dose to various organs, average total body dose and effective dose are summarized in Table 3 for both radiotracers and two typical tumour locations.
Dosimetric calculations were based on the biodistribution of [^99mTc]Tc-TECANT-1 and [^99mTc]Tc-TECANT-2 (Table 3). […] Percent of injected activity per organ in a human model was evaluated according to the animal data extrapolation model:(2) (%IA/organ)human=[(%IA/g)mouse×Mmouse(g)]×(m(g)/M(kg))human
Here m is the organ mass and M is the total body weight of mouse or human. Average total weight of the mouse was measured, while human phantom has the total weight of 73 kg. The %IA/g and %IA/organ is the percentage of the injected activity concentration (i.e., per gram of tissue) and per organ, respectively. For the tumour, we assumed that the percent of injected activity uptake into the tumour is the same for mouse and human.
Subsequently, percentage of the injected activity per organ was folded with the decay curve of ^99mTc and interpolated with the exponential function. The interpolation function was used to estimate initial %ID/organ and the time-integrated activity concentration (TIAC). Absorbed dose per injected activity for various organs was calculated with the TIAC factors and S-values for a standard person from the OpenDose project. Effective dose was evaluated according to the ICRP 103 recommendations.
We also assumed that the remaining activity from the organs and tumour ends up in the bladder.

[3] = target: T1, HEK-SST2 cells (human SST2 receptor) (Homo sapiens, UniProt P30874); experiment: Dissociation of cell-surface bound radiotracer with or without competitor; assay type: cell-based
T1 construct: expressed in transfected cells; host or cells: HEK293 (HEK-SST2), provided by Prof; Stefan Schulz, Jena University Hospital

[4] = target: T1, HEK-SST2 cells (human SST2 receptor); experiment: Internalization and cell-surface binding in HEK-SST2 cells; assay type: cell-based
[5] = target: T2, T7-epitope tagged human SST2 receptor (somatostatin receptor subtype 2) (human, UniProt P30874 1-369); experiment: radioligand binding; competition on 5 x 10^5 HEK-SST2 cells in 96-well filter plates; radioligand [^177Lu]Lu-DOTA-TATE (1 nM); competitor 0.004 to 4000 nM; 2 h at 4 °C; TRIS buffer; apparent IC50; conditions: one partner purified
T2 construct: somatostatin receptor subtype 2 (SST2), human, expressed in HEK293 cells; also called HEK-SST2 (the cells that express it); source: HEK293 cell line expressing it (HEK-SST2), provided by Professor Stefan Schulz; on intact cells

[6] = target: T2, T7-epitope tagged human SST2 receptor …; experiment: radioligand binding; dissociation without competitor: radiotracer 0.25 nM bound to HEK-SST2 cells for 2 h at 4 °C, washed, then medium at 37 °C replaced at 10, 20, 30, 60, 120 and 240 min; cell-associated radiotracer left; conditions: one partner purified
[7] = target: T2, T7-epitope tagged human SST2 receptor …; experiment: radioligand binding; dissociation with competitor: as without, but medium with 2.5 µM of the respective unlabelled TECANT analogue; conditions: one partner purified
[8] = athymic nude-Foxn1^nu/Foxn1^+, Biodistribution Heart
[9] = athymic nude-Foxn1^nu/Foxn1^+, Biodistribution Liver
[10] = athymic nude-Foxn1^nu/Foxn1^+, Biodistribution Lung
[11] = athymic nude-Foxn1^nu/Foxn1^+, Biodistribution Pancreas
[12] = athymic nude-Foxn1^nu/Foxn1^+, Biodistribution Spleen
[13] = athymic nude-Foxn1nu/Foxn1+, Biodistribution Adrenals
[14] = athymic nude-Foxn1nu/Foxn1+, Biodistribution Blood
[15] = athymic nude-Foxn1nu/Foxn1+, Biodistribution Bone
[16] = athymic nude-Foxn1nu/Foxn1+, Biodistribution HEK-SST2 (+) tumour uptake
[17] = athymic nude-Foxn1nu/Foxn1+, Biodistribution Intestine
[18] = athymic nude-Foxn1nu/Foxn1+, Biodistribution Kidneys
[19] = athymic nude-Foxn1nu/Foxn1+, Biodistribution Muscle
[20] = athymic nude-Foxn1nu/Foxn1+, Biodistribution Pituitary
[21] = athymic nude-Foxn1nu/Foxn1+, Biodistribution Stomach

T2 sequence (P30874 whole entry): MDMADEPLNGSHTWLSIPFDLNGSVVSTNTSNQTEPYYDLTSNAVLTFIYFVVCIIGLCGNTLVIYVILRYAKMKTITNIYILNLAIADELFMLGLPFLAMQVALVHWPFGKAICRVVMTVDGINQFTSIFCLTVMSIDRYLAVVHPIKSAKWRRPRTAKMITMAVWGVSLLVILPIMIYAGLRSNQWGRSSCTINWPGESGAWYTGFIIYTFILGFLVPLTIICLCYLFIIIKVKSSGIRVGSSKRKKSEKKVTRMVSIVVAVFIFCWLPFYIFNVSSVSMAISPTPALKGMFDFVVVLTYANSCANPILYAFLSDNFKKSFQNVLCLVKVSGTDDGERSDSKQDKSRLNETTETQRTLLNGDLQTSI
T1 sequence (P30874 whole entry): as above

- estimated half-life of dissociation [6]: 40.3 min
- estimated half-life of dissociation [7]: 7.5 min
B2: [^99mTc]Tc-TECANT-2 (peptide)
peptide: N4-[Phe(4-Cl)][dC]Y[dW]KTC[dY]-NH2
modifications: disulfide 2-7; also: N4 chelator holds 99mTc (dioxo-99mTc(V) complex)
notes: as TECANT-2: N4-p-Cl-Phe-cyclo(D-Cys-Tyr-D-Trp-Lys-Thr-Cys)-D-Tyr-NH2; F at 1 stands for p-Cl-Phe; also called ^99mTc-N4-SS01; source: synthetic peptide (piChem), labelled with ^99mTc, used without further purification

- IC50 [5]: 4.47 ± 0.89 nM
B3: ^natRe-TECANT-2 (peptide)
peptide: N4-[Phe(4-Cl)][dC]Y[dW]KTC[dY]-NH2
modifications: disulfide 2-7; also: N4 chelator holds natural rhenium
notes: as TECANT-2: N4-p-Cl-Phe-cyclo(D-Cys-Tyr-D-Trp-Lys-Thr-Cys)-D-Tyr-NH2; F at 1 stands for p-Cl-Phe; surrogate of the Tc complex; also called [^natRe]Re-TECANT-2; Re-complex of TECANT-2; source: synthetic peptide (piChem), Re complex made with tetrabutylammonium-tetrachloro-oxo-rhenate (V)

- IC50 [5]: 5.01 ± 0.93 nM
B5: ^natRe-TECANT-1 (peptide)
peptide: N4-[Phe(4-Cl)][dC]Y[dPhe(4-NHCONH2)]KTC[dY]-NH2
modifications: disulfide 2-7; also: N4 chelator holds natural rhenium
notes: as TECANT-1: N4-p-Cl-Phe-cyclo(D-Cys-Tyr-D-Aph(Cbm)-Lys-Thr-Cys)-D-Tyr-NH2; F at 1 stands for p-Cl-Phe and F at 4 for D-Aph(Cbm); surrogate of the Tc complex; also called [^natRe]Re-TECANT-1; Re-complex of TECANT-1; source: synthetic peptide (piChem), Re complex made with tetrabutylammonium-tetrachloro-oxo-rhenate (V)

More lines, now with the values behind:

Molecule: C[C@@H](O)[C@@H]1NC(=O)[C@H](CCCCN)NC(=O)[C@@H](Cc2ccc(NC(N)=O)cc2)NC(=O)[C@H](Cc2ccc(O)cc2)NC(=O)[C@H](NC(=O)[C@H](Cc2ccc(Cl)cc2)NC(=O)C(CNCCN)CNCCN)CSSC[C@@H](C(=O)N[C@H](Cc2ccc(O)cc2)C(N)=O)NC1=O [[^99mTc]Tc-TECANT-1, metal not drawn] (X1-[Phe(4-Cl)][dC]Y[dPhe(4-NHCONH2)]KTC[dY]-NH2; disulfide 2-7)
- logD [1]: -2.53 ± 0.19
- tissue uptake at 1 h (in vivo; [8]): 0.71 ± 0.1 %ID/g
- tissue uptake at 4 h (in vivo; [8]): 0.24 ± 0.06 %ID/g
- tissue uptake at 24 h (in vivo; [8]): 0.05 ± 0.02 %ID/g
- tissue uptake at 1 h (in vivo; [9]): 3.13 ± 0.43 %ID/g
- tissue uptake at 4 h (in vivo; [9]): 1.9 ± 0.41 %ID/g
- tissue uptake at 24 h (in vivo; [9]): 0.6 ± 0.1 %ID/g
- tissue uptake at 1 h (in vivo; [10]): 8.94 ± 3.92 %ID/g
- tissue uptake at 4 h (in vivo; [10]): 3.07 ± 1.16 %ID/g
- tissue uptake at 24 h (in vivo; [10]): 0.26 ± 0.04 %ID/g
- tissue uptake at 1 h (in vivo; [11]): 47.8 ± 7.86 %ID/g
- tissue uptake at 4 h (in vivo; [11]): 16.9 ± 3.97 %ID/g
- tissue uptake at 24 h (in vivo; [11]): 1.08 ± 0.19 %ID/g
- tissue uptake at 1 h (in vivo; [12]): 1.3 ± 0.41 %ID/g
- tissue uptake at 4 h (in vivo; [12]): 0.57 ± 0.11 %ID/g
- tissue uptake at 24 h (in vivo; [12]): 0.2 ± 0.01 %ID/g
- tissue uptake at 1 h (in vivo; [13]): 7.11 ± 3.04 %ID/g
- tissue uptake at 4 h (in vivo; [13]): 4.36 ± 1.88 %ID/g
- tissue uptake at 24 h (in vivo; [13]): 0.85 ± 0.18 %ID/g
- tissue uptake at 1 h (in vivo; [14]): 0.79 ± 0.09 %ID/g
- tissue uptake at 4 h (in vivo; [14]): 0.23 ± 0.05 %ID/g
- tissue uptake at 24 h (in vivo; [14]): 0.03 %ID/g
- tissue uptake at 1 h (in vivo; [15]): 1.41 ± 0.77 %ID/g
- tissue uptake at 4 h (in vivo; [15]): 0.59 ± 0.23 %ID/g
- tissue uptake at 24 h (in vivo; [15]): 0.35 ± 0.07 %ID/g
- tissue uptake at 1 h (in vivo; [16]): 21 ± 3.92 %ID/g
- tissue uptake at 4 h (in vivo; [16]): 26 ± 1.33 %ID/g
- tissue uptake at 24 h (in vivo; [16]): 19 ± 2 %ID/g
- tissue uptake at 4 h (in vivo; athymic nude-Foxn1nu/Foxn1+, Biodistribution HEK-SST2 (−) tumour uptake): 0.88 ± 0.37 %ID/g
- tissue uptake at 1 h (in vivo; [17]): 6.48 ± 4.37 %ID/g
- tissue uptake at 4 h (in vivo; [17]): 2.4 ± 1.9 %ID/g
- tissue uptake at 24 h (in vivo; [17]): 0.31 ± 0.08 %ID/g
- tissue uptake at 1 h (in vivo; [18]): 16.3 ± 1.83 %ID/g
- tissue uptake at 4 h (in vivo; [18]): 12.6 ± 2.54 %ID/g
- tissue uptake at 24 h (in vivo; [18]): 2.42 ± 0.2 %ID/g
- tissue uptake at 1 h (in vivo; [19]): 0.23 ± 0.05 %ID/g
- tissue uptake at 4 h (in vivo; [19]): 0.12 ± 0.06 %ID/g
- tissue uptake at 24 h (in vivo; [19]): 0.05 ± 0.01 %ID/g
- tissue uptake at 1 h (in vivo; [20]): 9.71 ± 2.81 %ID/g
- tissue uptake at 4 h (in vivo; [20]): 6.66 ± 3.67 %ID/g
- tissue uptake at 24 h (in vivo; [20]): 4.35 ± 2.87 %ID/g
- tissue uptake at 1 h (in vivo; [21]): 36.5 ± 7.89 %ID/g
- tissue uptake at 4 h (in vivo; [21]): 13.6 ± 3.86 %ID/g
- tissue uptake at 24 h (in vivo; [21]): 1.42 ± 0.27 %ID/g
- Average total body dose [2]: 3.2 μGy/MBq
- Dose Bone [2]: 3.9 μGy/MBq
- Dose Muscle [2]: 2.4 μGy/MBq
- Dose Red marrow [2]: 3.3 μGy/MBq
- Dose Small intestine wall [2]: 1.9 μGy/MBq
- biological half-life of clearance of remaining activity (rest of the body) to the bladder [2]: 9.7 h
- effective dose [2]: 4.9 mSv
- fraction dissociated ([3]; HEK-SST2 cells, at 2 h/37 °C): < 30%
- estimated dissociation half-life ([3]; absence of competitor): 98 min
- total binding remaining (dissociation assay) ([3]; after 4 h, 37 °C, absence of competitor): 58.8 ± 3.3%
- estimated dissociation half-life ([3]; presence of competitor): 19 min
- bound fraction still remaining in the cells ([3]; presence of excess of the competitor, 37 °C): 7.9 ± 2.2%
- internalization (internalized fraction) ([4]; 30 min, 37 °C): 4.1 ± 0.1%
- internalization (internalized fraction) ([4]; 4 h, 37 °C): 13.4 ± 1.7%
- cell surface binding ([4]; 4 h, 37 °C, % of total radioactivity added): 50.7 ± 1.7%
- cellular uptake ([4]; at 2 h/37 °C): > 50%

B1: TECANT-1 (N4-p-Cl-Phe-cyclo(D-Cys-Tyr-D-Aph(Cbm)-Lys-Thr-Cys)-D-Tyr-NH2) (peptide)
peptide: N4-[Phe(4-Cl)][dC]Y[dPhe(4-NHCONH2)]KTC[dY]-NH2
modifications: disulfide 2-7
SMILES: C[C@@H](O)[C@@H]1NC(=O)[C@H](CCCCN)NC(=O)[C@@H](Cc2ccc(NC(N)=O)cc2)NC(=O)[C@H](Cc2ccc(O)cc2)NC(=O)[C@H](NC(=O)[C@H](Cc2ccc(Cl)cc2)NC(=O)C(CNCCN)CNCCN)CSSC[C@@H](C(=O)N[C@H](Cc2ccc(O)cc2)C(N)=O)NC1=O
notes: printed in three-letter code: N4-p-Cl-Phe-cyclo(D-Cys-Tyr-D-Aph(Cbm)-Lys-Thr-Cys)-D-Tyr-NH2; F at 1 stands for p-Cl-Phe and F at 4 for D-Aph(Cbm), both phenylalanine derivatives; SST2 antagonist based on LM3; non-metallated peptide conjugate; also called N4-LM3; source: synthetic peptide, custom made by piChem
- IC50 [5]: 4.14 ± 0.83 nM

B4: [^99mTc]Tc-TECANT-1 (peptide)
peptide: N4-[Phe(4-Cl)][dC]Y[dPhe(4-NHCONH2)]KTC[dY]-NH2
modifications: disulfide 2-7; also: N4 chelator holds 99mTc (dioxo-99mTc(V) complex)
notes: as TECANT-1: N4-p-Cl-Phe-cyclo(D-Cys-Tyr-D-Aph(Cbm)-Lys-Thr-Cys)-D-Tyr-NH2; F at 1 stands for p-Cl-Phe and F at 4 for D-Aph(Cbm); source: synthetic peptide (piChem), labelled with ^99mTc, used without further purification
- estimated half-life of dissociation [6]: 98 min
- estimated half-life of dissociation [7]: 19 min
